Source: patent publication US20250100996A1, “HETEROCYCLOALKYL AND HETEROARYL COMPOUNDS AND PHARMACEUTICAL COMPOSITIONS THAT MODULATE IKZF2” (Plexium, Inc., priority 2021, published 2025)

Key:
IKZF1 (Ikaros) = target: T1, IKZF1 (Ikaros) (Homo sapiens, UniProt Q13422); experiment: IKZF1 reporter degradation assay (HEK 293T IKZF1-mNeonGreen reporter cell line); assay type: cell-based; conditions: HEK 293T IKZF1-mNeonGreen reporter, 24 hours incubation
T1 construct: mScarlet (behind P2A) (C, cleaved yes); expressed in transfected cells
In short: (§1)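 Stable clonal HEK 293T lines express each IKZF-mNeonGreen-P2A-mScarlet fusion. Cells were seeded, attached overnight, then given compound (≤0.5% DMSO, quadruplicate) for 24 h at 37° C. Imaged for percent mNeonGreen-positive cells, segmented on mScarlet. DC50 from four-parameter logistic fit.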

IKZF3 (Aiolos) = target: T2, IKZF3 (Aiolos) (Homo sapiens, UniProt Q9UKT9); experiment: IKZF3 reporter degradation assay (HEK 293T IKZF3-mNeonGreen reporter cell line); assay type: cell-based; conditions: HEK 293T IKZF3-mNeonGreen reporter, 24 hours incubation; for inhibition at 1 µM: HEK-293T, 24 h
T2 construct: Leu-Asp junction (codons ctcgac before the linker); mScarlet (behind P2A) (C, cleaved yes); expressed in transfected cells
In short: as §1

IKZF2 (Helios) [1] = target: T3, IKZF2 (Helios) (Homo sapiens, UniProt Q96SW2+Q9UKS7); experiment: IKZF2 reporter degradation assay (HEK 293T IKZF2-mNeonGreen reporter cell line); assay type: cell-based; conditions: HEK-293T, 24 h, @ 1 μM, HEK 293T IKZF2-mNeonGreen reporter, 24 hours incubation
T3 construct: Leu-Asp junction (codons ctcgac before the linker); mScarlet (behind P2A) (C, cleaved yes); expressed in transfected cells
In short: as §1

IKZF2 (Helios) [2] = target: T4, IKZF2 (Helios) (Homo sapiens, UniProt Q9UKS7); experiment: as above; assay type: cell-based; conditions: HEK 293T IKZF2-mNeonGreen reporter, 24 hours incubation
T4 construct: Leu-Asp junction (codons ctcgac before the linker); mScarlet (behind P2A) (C, cleaved yes); expressed in transfected cells
In short: as §1

[3] = target: T5, human E3 ligase component cereblon (CRBN) (Homo sapiens, UniProt Q96SW2); experiment: Cereblon (CRBN) target engagement, NanoBRET TE Intracellular E3 Ligase Assay in transfected HEK-293T cells; conditions: read-out: CRBN Binding EC50
T5 construct: host or cells: HEK293T
In short: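 HEK-293T cells transiently co-transfected with NanoLuc-CRBN (N-terminal NanoLuc) and DDB1 were dosed with CRBN tracer and an 11-point compound series (typically 10 μM to 100 pM) for 2 h at 37° C. BRET at 450/610 nm gave IC50 by four-parameter logistic fit.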

T2 sequence (Q96SW2 whole entry partner): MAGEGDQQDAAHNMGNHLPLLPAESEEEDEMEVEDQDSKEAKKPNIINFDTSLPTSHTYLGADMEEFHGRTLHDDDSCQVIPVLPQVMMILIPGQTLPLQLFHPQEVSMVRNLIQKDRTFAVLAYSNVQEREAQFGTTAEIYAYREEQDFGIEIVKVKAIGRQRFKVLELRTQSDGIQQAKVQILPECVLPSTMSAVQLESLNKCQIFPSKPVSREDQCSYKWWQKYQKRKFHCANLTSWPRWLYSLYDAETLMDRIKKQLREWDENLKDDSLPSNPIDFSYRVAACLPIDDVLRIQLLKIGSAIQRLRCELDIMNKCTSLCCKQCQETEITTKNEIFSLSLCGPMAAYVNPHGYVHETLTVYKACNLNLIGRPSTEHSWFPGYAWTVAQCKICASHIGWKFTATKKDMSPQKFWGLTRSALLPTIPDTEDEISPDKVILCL
T2 sequence (Q16531 whole entry partner): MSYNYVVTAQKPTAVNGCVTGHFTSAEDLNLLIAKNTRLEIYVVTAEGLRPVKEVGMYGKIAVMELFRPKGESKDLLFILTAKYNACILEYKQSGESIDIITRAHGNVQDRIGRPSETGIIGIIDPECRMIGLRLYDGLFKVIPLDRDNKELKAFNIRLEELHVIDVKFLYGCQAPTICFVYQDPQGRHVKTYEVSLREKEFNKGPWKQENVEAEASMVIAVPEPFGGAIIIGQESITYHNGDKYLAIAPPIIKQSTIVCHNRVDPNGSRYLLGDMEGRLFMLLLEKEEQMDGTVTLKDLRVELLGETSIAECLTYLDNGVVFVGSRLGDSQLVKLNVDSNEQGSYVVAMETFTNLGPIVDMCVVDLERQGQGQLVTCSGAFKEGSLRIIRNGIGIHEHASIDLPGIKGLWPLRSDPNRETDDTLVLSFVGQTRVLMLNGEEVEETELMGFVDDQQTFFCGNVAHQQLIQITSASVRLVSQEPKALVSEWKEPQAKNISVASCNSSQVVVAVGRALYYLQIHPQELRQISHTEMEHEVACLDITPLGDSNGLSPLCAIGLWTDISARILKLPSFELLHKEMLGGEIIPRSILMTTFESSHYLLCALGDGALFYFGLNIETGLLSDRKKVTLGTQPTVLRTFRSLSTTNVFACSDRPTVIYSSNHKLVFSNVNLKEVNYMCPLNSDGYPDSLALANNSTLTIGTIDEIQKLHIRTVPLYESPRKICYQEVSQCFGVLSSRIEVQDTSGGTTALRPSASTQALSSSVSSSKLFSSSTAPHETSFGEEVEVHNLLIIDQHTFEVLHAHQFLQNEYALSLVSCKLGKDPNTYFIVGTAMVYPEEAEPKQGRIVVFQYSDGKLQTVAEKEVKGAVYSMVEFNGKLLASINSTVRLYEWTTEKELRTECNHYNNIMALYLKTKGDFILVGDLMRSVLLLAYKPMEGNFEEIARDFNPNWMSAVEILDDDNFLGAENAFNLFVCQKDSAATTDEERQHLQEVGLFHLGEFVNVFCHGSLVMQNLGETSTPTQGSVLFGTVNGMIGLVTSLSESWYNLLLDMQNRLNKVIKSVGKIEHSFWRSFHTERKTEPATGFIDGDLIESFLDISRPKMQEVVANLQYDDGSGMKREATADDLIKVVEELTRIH
T2 sequence (Q9UKT9 whole entry): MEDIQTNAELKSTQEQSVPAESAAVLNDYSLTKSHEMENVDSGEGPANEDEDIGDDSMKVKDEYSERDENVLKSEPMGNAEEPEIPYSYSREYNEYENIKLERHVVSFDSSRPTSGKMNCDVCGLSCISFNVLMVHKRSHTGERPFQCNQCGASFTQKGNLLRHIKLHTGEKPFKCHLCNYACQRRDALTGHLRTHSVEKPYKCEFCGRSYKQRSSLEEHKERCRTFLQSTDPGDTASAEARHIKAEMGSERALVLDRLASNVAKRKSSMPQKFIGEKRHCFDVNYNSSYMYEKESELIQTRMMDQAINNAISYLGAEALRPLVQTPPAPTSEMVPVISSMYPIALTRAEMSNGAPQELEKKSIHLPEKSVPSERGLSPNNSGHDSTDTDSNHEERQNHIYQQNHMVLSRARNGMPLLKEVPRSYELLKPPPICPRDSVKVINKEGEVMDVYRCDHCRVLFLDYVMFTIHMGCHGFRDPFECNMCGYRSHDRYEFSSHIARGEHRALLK
T5 sequence (Q96SW2 whole entry): as the sequence (Q96SW2 whole entry partner) above
T5 sequence (Q16531 whole entry partner): as the sequence (Q16531 whole entry partner) above
T1 sequence (Q96SW2 whole entry partner): as the sequence (Q96SW2 whole entry partner) above
T1 sequence (Q16531 whole entry partner): as the sequence (Q16531 whole entry partner) above
T1 sequence (Q13422 whole entry): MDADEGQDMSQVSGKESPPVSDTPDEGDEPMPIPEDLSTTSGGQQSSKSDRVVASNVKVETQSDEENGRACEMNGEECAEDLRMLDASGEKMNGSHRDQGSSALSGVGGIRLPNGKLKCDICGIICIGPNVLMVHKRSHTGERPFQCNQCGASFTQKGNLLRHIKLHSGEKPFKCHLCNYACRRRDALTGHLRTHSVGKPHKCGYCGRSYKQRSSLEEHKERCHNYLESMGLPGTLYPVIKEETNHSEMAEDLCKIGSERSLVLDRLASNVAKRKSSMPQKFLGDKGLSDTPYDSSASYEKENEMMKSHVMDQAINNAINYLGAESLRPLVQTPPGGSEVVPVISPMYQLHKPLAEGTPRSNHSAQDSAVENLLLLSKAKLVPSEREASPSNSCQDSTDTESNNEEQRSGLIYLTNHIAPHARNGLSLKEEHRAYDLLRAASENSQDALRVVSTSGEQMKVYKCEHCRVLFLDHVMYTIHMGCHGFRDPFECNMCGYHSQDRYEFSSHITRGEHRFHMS
T3 sequence (Q9UKS7 whole entry): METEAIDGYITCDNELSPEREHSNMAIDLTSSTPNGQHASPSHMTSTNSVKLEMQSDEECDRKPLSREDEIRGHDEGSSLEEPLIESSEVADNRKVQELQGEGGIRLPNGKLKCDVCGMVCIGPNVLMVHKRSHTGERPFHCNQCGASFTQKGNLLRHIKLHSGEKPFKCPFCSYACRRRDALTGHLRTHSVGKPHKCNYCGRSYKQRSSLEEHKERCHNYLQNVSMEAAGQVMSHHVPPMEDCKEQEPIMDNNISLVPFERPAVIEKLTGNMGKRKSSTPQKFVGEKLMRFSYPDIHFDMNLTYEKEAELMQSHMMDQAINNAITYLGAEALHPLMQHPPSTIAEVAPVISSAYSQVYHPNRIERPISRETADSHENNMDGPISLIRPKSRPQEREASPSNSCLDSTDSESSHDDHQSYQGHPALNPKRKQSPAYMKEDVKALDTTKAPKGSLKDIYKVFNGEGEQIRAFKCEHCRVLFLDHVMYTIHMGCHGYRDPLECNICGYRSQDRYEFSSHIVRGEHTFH
T3 sequence (Q96SW2 whole entry): as the sequence (Q96SW2 whole entry partner) above
T3 sequence (Q16531 whole entry partner): as the sequence (Q16531 whole entry partner) above
T4 sequence (Q9UKS7 whole entry): as the sequence (Q9UKS7 whole entry) above
T4 sequence (Q96SW2 whole entry, further chain): as the sequence (Q96SW2 whole entry partner) above
T4 sequence (Q16531 whole entry partner): as the sequence (Q16531 whole entry partner) above

| Compound | DC50 (IKZF1 (Ikaros)) | DC50 (IKZF3 (Aiolos)) | inhibition at 1 µM (IKZF2 (Helios) [1]) | DC50 (IKZF2 (Helios) [2]) | EC50 [3] | inhibition at 1 µM (IKZF3 (Aiolos)) |
| --- | --- | --- | --- | --- | --- | --- |
| CC1(C(=O)N2CCC(C3CN([C@H]4CCCC[C@@H]4Oc4ccc5c(c4)CN(C4CCC(=O)NC4=O)C5=O)C3)CC2)COC1 (stereo partly drawn) [Compound 29-A, 3-(5-(((1S,2S)-2-(3-(1-(3-methyloxetane-3-carbonyl)piperidin-4-yl)azetidin-1-yl)cyclohexyl)oxy)-1-oxoisoindolin-2-yl)piperidine-2,6-dione] | > 30000 nM | > 30000 nM | 83.2% | 11 nM | 67 nM | – |
| CC1(C(=O)N2CCC(C3CN([C@H]4CCCC[C@@H]4Oc4ccc5c(c4)CN(C4CCC(=O)NC4=O)C5=O)C3)CC2)CC1 (stereo partly drawn) [Compound 31-A, 3-(5-(((1S,2S)-2-(3-(1-(1-methylcyclopropane-1-carbonyl)piperidin-4-yl)azetidin-1-yl)cyclohexyl)oxy)-1-oxoisoindolin-2-yl)piperidine-2,6-dione] | > 30000 nM | 61 nM | 88.2% | 0.1 nM | 6 nM | 26.2% |
| O=C1CCC(N2Cc3cc(O[C@H]4CCCC[C@@H]4N4CC(C5CCN(C(=O)C6CC(F)(F)C6)CC5)C4)ccc3C2=O)C(=O)N1 (stereo partly drawn) [Compound 32-A, 3-(5-(((1S,2S)-2-(3-(1-(3,3-difluorocyclobutane-1-carbonyl)piperidin-4-yl)azetidin-1-yl)cyclohexyl)oxy)-1-oxoisoindolin-2-yl)piperidine-2,6-dione] | > 30000 nM | 71 nM | 84.7% | 1 nM | 5 nM | 24.1% |
| O=C1CCC(N2Cc3cc(O[C@H]4CCCC[C@@H]4N4CC(c5ccc6cccnc6c5)C4)ccc3C2=O)C(=O)N1 (stereo partly drawn) [Compound 87-B, 3-(1-oxo-5-(((1S,2S)-2-(3-(quinolin-7-yl)azetidin-1-yl)cyclohexyl)oxy)isoindolin-2-yl)piperidine-2,6-dione] | > 30000 nM | > 30000 nM | 87.5% | 4 nM | 3 nM | – |
| O=C1CCC(N2Cc3cc(O[C@H]4CCCC[C@@H]4N4CC(C5CCN(C(=O)C6(F)CC6)CC5)C4)ccc3C2=O)C(=O)N1 (stereo partly drawn) [Compound 42-A, 3-(5-(((1S,2S)-2-(3-(1-(1-fluorocyclopropane-1-carbonyl)piperidin-4-yl)azetidin-1-yl)cyclohexyl)oxy)-1-oxoisoindolin-2-yl)piperidine-2,6-dione] | > 30000 nM | 21 nM | 87.3% | 1 nM | 3 nM | 31% |
| O=C1CCC(N2Cc3cc(O[C@H]4CCCC[C@@H]4N4CC(C5CCN(C(=O)CC6CC6)CC5)C4)ccc3C2=O)C(=O)N1 (stereo partly drawn) [Compound 34-A, 3-(5-(((1S,2S)-2-(3-(1-(2-cyclopropylacetyl)piperidin-4-yl)azetidin-1-yl)cyclohexyl)oxy)-1-oxoisoindolin-2-yl)piperidine-2,6-dione] | > 30000 nM | 544 nM | 88% | 2 nM | 10 nM | 24.9% |
| CC12CC(C(=O)N3CCC(C4CN([C@H]5CCCC[C@@H]5Oc5ccc6c(c5)CN(C5CCC(=O)NC5=O)C6=O)C4)CC3)(C1)C2 (stereo partly drawn) [Compound 28-A, 3-(5-(((1S,2S)-2-(3-(1-(3-methylbicyclo[1.1.1]pentane-1-carbonyl)piperidin-4-yl)azetidin-1-yl)cyclohexyl)oxy)-1-oxoisoindolin-2-yl)piperidine-2,6-dione] | > 30000 nM | 13 nM | 82.5% | 2 nM | 3 nM | 67.5% |
| O=C1CCC(N2Cc3cc(O[C@H]4CCCC[C@@H]4N4CC(C5CCN(S(=O)(=O)C6CCC6)CC5)C4)ccc3C2=O)C(=O)N1 (stereo partly drawn) [Compound 57-A, 3-(5-(((1S,2S)-2-(3-(1-(cyclobutylsulfonyl)piperidin-4-yl)azetidin-1-yl)cyclohexyl)oxy)-1-oxoisoindolin-2-yl)piperidine-2,6-dione] | > 30000 nM | > 30000 nM | 85.4% | 2 nM | 3 nM | – |
| N#CC1(C(=O)N2CCC(C3CN([C@H]4CCCC[C@@H]4Oc4ccc5c(c4)CN(C4CCC(=O)NC4=O)C5=O)C3)CC2)CC1 (stereo partly drawn) [Compound 27-A, 1-(4-(1-((1S,2S)-2-((2-(2,6-dioxopiperidin-3-yl)-1-oxoisoindolin-5-yl)oxy)cyclohexyl)azetidin-3-yl)piperidine-1-carbonyl)cyclopropane-1-carbonitrile] | ≥ 30000 nM | 110 nM | 84.6% | 8 nM | 10 nM | 44% |
| O=C1CCC(N2Cc3cc(O[C@H]4CCCC[C@@H]4N4CC(C5CCOCC5F)C4)ccc3C2=O)C(=O)N1 (stereo partly drawn) [Compound 55-A, 3-(5-(((1S,2S)-2-(3-(3-fluorotetrahydro-2H-pyran-4-yl)azetidin-1-yl)cyclohexyl)oxy)-1-oxoisoindolin-2-yl)piperidine-2,6-dione] | > 30000 nM | > 30000 nM | 83.8% | 5 nM | 14 nM | – |
| CC1CC1C(=O)N1CCC(C2CN([C@H]3CCCC[C@@H]3Oc3ccc4c(c3)CN(C3CCC(=O)NC3=O)C4=O)C2)CC1 (stereo partly drawn) [Compound 35-A, 3-(5-(((1S,2S)-2-(3-(1-(2-methylcyclopropane-1-carbonyl)piperidin-4-yl)azetidin-1-yl)cyclohexyl)oxy)-1-oxoisoindolin-2-yl)piperidine-2,6-dione] | > 30000 nM | 8070 nM | 88.2% | 1 nM | 8 nM | 23.5% |
| N#CC1(C(=O)N2CCC(C3CN([C@H]4CCCC[C@@H]4Oc4ccc5c(c4)CN(C4CCC(=O)NC4=O)C5=O)C3)CC2)CCC1 (stereo partly drawn) [Compound 30-A, 1-(4-(1-((1S,2S)-2-((2-(2,6-dioxopiperidin-3-yl)-1-oxoisoindolin-5-yl)oxy)cyclohexyl)azetidin-3-yl)piperidine-1-carbonyl)cyclobutane-1-carbonitrile] | > 30000 nM | 14 nM | 84.4% | 0.5 nM | 4 nM | 63.4% |
| CC1(C(=O)N2CCC(C3CN([C@H]4CCCC[C@@H]4Oc4ccc5c(c4)CN(C4CCC(=O)NC4=O)C5=O)C3)CC2)CCCC1 (stereo partly drawn) [Compound 33-A, 3-(5-(((1S,2S)-2-(3-(1-(1-methylcyclopentane-1-carbonyl)piperidin-4-yl)azetidin-1-yl)cyclohexyl)oxy)-1-oxoisoindolin-2-yl)piperidine-2,6-dione] | > 30000 nM | 6 nM | 88.4% | – | 7 nM | 60.8% |
| O=C1CCC(N2Cc3cc(O[C@H]4CCCC[C@@H]4N4CC(C5CCOC5)C4)ccc3C2=O)C(=O)N1 (stereo partly drawn) [Compound 14-A, 3-(1-oxo-5-(((1S,2S)-2-(3-(tetrahydrofuran-3-yl)azetidin-1-yl)cyclohexyl)oxy)isoindolin-2-yl)piperidine-2,6-dione] | > 30000 nM | > 30000 nM | 67.4% | 28 nM | 39 nM | – |
